According to PMC6278923 (Insect biochemistry and molecular biology, 2018):

Target: T1, RproOR1•RproOrco (Rhodnius prolixus, UniProt T1H977)
T1 sequence (T1H977 1-409): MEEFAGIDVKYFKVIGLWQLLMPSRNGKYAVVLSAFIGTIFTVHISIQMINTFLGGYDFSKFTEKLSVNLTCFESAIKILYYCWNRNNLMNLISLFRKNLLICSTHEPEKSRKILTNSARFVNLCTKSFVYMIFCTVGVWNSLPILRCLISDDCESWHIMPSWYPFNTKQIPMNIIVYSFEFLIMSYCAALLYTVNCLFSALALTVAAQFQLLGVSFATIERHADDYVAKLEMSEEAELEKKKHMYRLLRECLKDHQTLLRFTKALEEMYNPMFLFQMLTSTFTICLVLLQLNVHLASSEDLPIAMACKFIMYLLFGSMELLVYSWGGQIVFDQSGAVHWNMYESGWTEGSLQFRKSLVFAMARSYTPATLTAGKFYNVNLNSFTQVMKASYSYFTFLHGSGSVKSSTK
Test: two-electrode voltage clamp, Xenopus oocytes
Format: cell-based
Settings: agonist; -70 mV; coexpressed with RproOrco

Structure (SMILES)	two-electrode voltage clamp, Xenopus oocytes
CC/C=C\CCOC(C)=O [(Z)-3-hexenyl acetate]	moderate responses to 3-methyl-1-butanol, methyl butyrate, (Z)-3-hexenyl acetate
CCCCC=O [pentanal]	moderate responses to 3-methyl-1-butanol, methyl butyrate, (Z)-3-hexenyl acetate, pentanal
